This passage reports EC50 results from patent US20240018133A1, “MODULATORS OF THE INTEGRATED STRESS PATHWAY” (Calico Life Sciences LLC, priority 2019, published 2024).

Some results are limits rather than exact numbers.

This experiment concerns ATF4 luciferase reporter (human full-length ATF4 5'-UTR fused to firefly luciferase) in HEK293T cells. The experiment in a line: ATF4-Luc assay (in vitro model of VWMD): HEK293T cells carrying ATF4 luciferase reporter, tunicamycin-treated. The class given is cell-based. The following applies: Homo sapiens, HEK-293T, 1 μg/mL tunicamycin, 7 hours, One Glo luminescence. Put shortly: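 Reporter cells were stably generated by retroviral transduction and puromycin selection, then seeded at 30,000 cells/well. Next day, cells received 1 μg/mL tunicamycin with 200 nM test compound for 7 h, and luciferase luminescence was read with a one-step reagent. Values reported as EC50.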
In general terms: A reporter such as luciferase makes a cellular process visible.
On to `O=C(COc1ccc(Cl)c(F)c1)NC12CC(NC(=O)C3CC(NC4(CO)CC4)c4cc(Cl)ccc4O3)(C1)C2` (stereo not shown) [Compound 339, 6-chloro-N-{3-[2-(4-chloro-3-fluorophenoxy)acetamido]bicyclo[1.1.1]pentan-1-yl}-4-{[1-(hydroxymethyl)cyclopropyl]amino}-3,4-dihydro-2H-1-benzopyran-2-carboxamide], for which the EC50 was in the range of 10 to 50 nM.

Take `Cc1ccc2oc(C(=O)NC34CC(NC(=O)COc5ccc(Cl)c(F)c5)(C3)C4)cc(=O)c2c1` [Compound 341, N-{3-[2-(4-chloro-3-fluorophenoxy)acetamido]bicyclo[1.1.1]pentan-1-yl}-6-methyl-4-oxo-4H-1-benzopyran-2-carboxamide]: the EC50 is less than 10 nM.

For `O=C(COc1ccc(Cl)c(Cl)c1)NC12CC(NC(=O)[C@@H]3CC(=O)c4cc(F)c(F)cc4O3)(C1)C2` [Compound 342, (2S)—N-{3-[2-(3,4-dichlorophenoxy)acetamido]bicyclo[1.1.1]pentan-1-yl}-6,7-difluoro-4-oxo-3,4-dihydro-2H-1-benzopyran-2-carboxamide], the EC50 lay within 10 to 50 nM.

For `Cc1csc(C(=O)NC23CCC(NC(=O)[C@H]4C[C@@H](O)c5cc(Cl)ccc5O4)(CC2)[C@@H](O)C3)n1` [Compound 344, N-[(3S)-4-{[(2R,4R)-6-chloro-4-hydroxy-3,4-dihydro-2H-1-benzopyran-2-carbonyl]amino}-3-hydroxybicyclo[2.2.2]octan-1-yl]-4-methyl-1,3-thiazole-2-carboxamide], the 50% effective concentration (EC50) lay within 50 to 250 nM.

For `O=C(COc1ccc(Cl)c(F)c1)NC12CC(NC(=O)C3COc4cc(Cl)ccc4C3)(C1)C2` (stereo not shown) [Compound 345, 7-chloro-N-{3-[2-(4-chloro-3-fluorophenoxy)acetamido]bicyclo[1.1.1]pentan-1-yl}-3,4-dihydro-2H-1-benzopyran-3-carboxamide], the concentration giving a half-maximal response (EC50) was greater than 2000 nM.

Consider `O=C(COc1ccc(Cl)c(F)c1)NC12CC(NC(=O)c3cc(=O)c4cc(O)ccc4o3)(C1)C2` [Compound 346, N-{3-[2-(4-chloro-3-fluorophenoxy)acetamido]bicyclo[1.1.1]pentan-1-yl}-6-hydroxy-4-oxo-4H-1-benzopyran-2-carboxamide], for which the concentration giving a half-maximal response (EC50) lay within 500 to 2000 nM.

With `Cc1cc2c(cc1F)C(O)CC(C(=O)NC13CC(NC(=O)COc4ccc(Cl)c(F)c4)(C1)C3)O2` (stereo not shown) [Compound 347, N-{3-[2-(4-chloro-3-fluorophenoxy)acetamido]bicyclo[1.1.1]pentan-1-yl}-6-fluoro-4-hydroxy-7-methyl-3,4-dihydro-2H-1-benzopyran-2-carboxamide], the 50% effective concentration (EC50) was less than 10 nM.

With `CC(C)(O)CN1C[C@@H](C(=O)NC23CC(NC(=O)COc4ccc(Cl)c(F)c4)(C2)C3)Oc2ccc(Cl)cc21` [Compound 348, (2S)-6-chloro-N-{3-[2-(4-chloro-3-fluorophenoxy)acetamido]bicyclo[1.1.1]pentan-1-yl}-4-(2-hydroxy-2-methylpropyl)-3,4-dihydro-2H-1,4-benzoxazine-2-carboxamide], the EC50 is 50 to 250 nM.

For the compound `O=C(COc1ccc(Cl)c(F)c1)NC12CC(NC(=O)C3CC(NC4COC4)c4cc(Cl)ccc4O3)(C1)C2` (stereo not shown) [Compound 349, 6-chloro-N-{3-[2-(4-chloro-3-fluorophenoxy)acetamido]bicyclo[1.1.1]pentan-1-yl}-4-[(oxetan-3-yl)amino]-3,4-dihydro-2H-1-benzopyran-2-carboxamide], the EC50 fell in the range of 10 to 50 nM.

In the case of `O=C(COc1ccc(Cl)c(F)c1)NC12CC(NC(=O)C3(F)CC(O)c4cc(Cl)ccc4O3)(C1)C2` (stereo not shown) [Compound 350, 6-chloro-N-{3-[2-(4-chloro-3-fluorophenoxy)acetamido]bicyclo[1.1.1]pentan-1-yl}-2-fluoro-4-hydroxy-3,4-dihydro-2H-1-benzopyran-2-carboxamide], the EC50 is less than 10 nM.

Regarding `O=C(COc1cc(F)c2cn[nH]c2c1)NC12CC(NC(=O)[C@H]3C[C@@H](O)c4cc(Cl)ccc4O3)(C1)C2` [Compound 351, (2R,4R)-6-chloro-N-(3-{2-[(4-fluoro-1H-indazol-6-yl)oxy]acetamido}bicyclo[1.1.1]pentan-1-yl)-4-hydroxy-3,4-dihydro-2H-1-benzopyran-2-carboxamide], the concentration for a half-maximal effect (EC50) was less than 10 nM.

Consider `O=C(NC12CCC(NC(=O)[C@H]3CC(=O)c4cc(Cl)ccc4O3)(CC1)C[C@@H]2O)c1cnc(C(F)F)cn1` [Compound 352, N-[(2S)-4-{[(2R)-6-chloro-4-oxo-3,4-dihydro-2H-1-benzopyran-2-carbonyl]amino}-2-hydroxybicyclo[2.2.2]octan-1-yl]-5-(difluoromethyl)pyrazine-2-carboxamide], for which the 50% effective concentration (EC50) is 500 to 2000 nM.

For `O=C(NC12CCC(NC(=O)[C@H]3C[C@@H](O)c4cc(Cl)ccc4O3)(CC1)C[C@@H]2O)c1cnc(C(F)F)cn1` [Compound 353, N-[(2S)-4-{[(2R,4R)-6-chloro-4-hydroxy-3,4-dihydro-2H-1-benzopyran-2-carbonyl]amino}-2-hydroxybicyclo[2.2.2]octan-1-yl]-5-(difluoromethyl)pyrazine-2-carboxamide], the concentration for a half-maximal effect (EC50) lay in the range of 50 to 250 nM.

As for `O=C(COc1cc(F)c2cn[nH]c2c1)NC12CCC(NC(=O)[C@H]3C[C@@H](O)c4cc(Cl)ccc4O3)(CC1)[C@@H](O)C2` [Compound 355, (2R,4R)-6-chloro-N-[(2S)-4-{2-[(4-fluoro-1H-indazol-6-yl)oxy]acetamido}-2-hydroxybicyclo[2.2.2]octan-1-yl]-4-hydroxy-3,4-dihydro-2H-1-benzopyran-2-carboxamide], the concentration giving a half-maximal response (EC50) was less than 10 nM.

Take `Cc1csc(C(=O)NC23CCC(NC(=O)[C@H]4C[C@@H](O)c5cc(Cl)ccc5O4)(CC2)C[C@@H]3O)n1` [Compound 356, N-[(2S)-4-{[(2R,4R)-6-chloro-4-hydroxy-3,4-dihydro-2H-1-benzopyran-2-carbonyl]amino}-2-hydroxybicyclo[2.2.2]octan-1-yl]-4-methyl-1,3-thiazole-2-carboxamide]: the EC50 lay in the range of 50 to 250 nM.

As for `O=C(NC12CCC(NC(=O)[C@H]3CC(=O)c4cc(Cl)ccc4O3)(CC1)CC2)c1ccc(OC(F)(F)F)cn1` [Compound 357, N-(4-{[(2R)-6-chloro-4-oxo-3,4-dihydro-2H-1-benzopyran-2-carbonyl]amino}bicyclo[2.2.2]octan-1-yl)-5-(trifluoromethoxy)pyridine-2-carboxamide], the EC50 is 500 to 2000 nM.

Consider `O=C(NC12CCC(NC(=O)[C@@H]3CC(=O)c4cc(Cl)ccc4O3)(CC1)CC2)c1ccc(OC(F)(F)F)cn1` [Compound 358, N-(4-{[(2S)-6-chloro-4-oxo-3,4-dihydro-2H-1-benzopyran-2-carbonyl]amino}bicyclo[2.2.2]octan-1-yl)-5-(trifluoromethoxy)pyridine-2-carboxamide], for which the half-maximal effective concentration (EC50) is greater than 2000 nM.

In the case of `Cc1cc(OCC(=O)NC23CC(NC(=O)[C@H]4C[C@@H](O)c5cc(F)c(F)cc5O4)(C2)C3)ccc1F` [Compound 359, (2R,4R)-6,7-difluoro-N-{3-[2-(4-fluoro-3-methylphenoxy)acetamido]bicyclo[1.1.1]pentan-1-yl}-4-hydroxy-3,4-dihydro-2H-1-benzopyran-2-carboxamide], the EC50 is less than 10 nM.

On to `Cc1cc(OCC(=O)NC23CC(NC(=O)[C@@H]4C[C@H](O)c5cc(Cl)ccc5O4)(C2)C3)ccc1F` [Compound 360, (2S,4S)-6-chloro-N-{3-[2-(4-fluoro-3-methylphenoxy)acetamido]bicyclo[1.1.1]pentan-1-yl}-4-hydroxy-3,4-dihydro-2H-1-benzopyran-2-carboxamide], for which the half-maximal effective concentration (EC50) is 10 to 50 nM.

The term EC50 denotes the midpoint of the concentration-response curve.
